Reference: patent publication US20190106498A1, “TREATMENT FOR ACUTE MYELOID LEUKEMIA” (priority 2017, published 2019)

Experiments:
LSCs = test: CD70 expression on LSCs of AML patients treated with HMA; type: in vivo, human; conditions: newly diagnosed AML patients after HMA treatment
Experimental: (FIG. 2A) Representative FACS plots of CD70 expression on lin-CD90+CD34+CD38− AML stem/progenitor cells after culture in the presence or absence of 0.5 mM decitabine (D) or vehicle (Veh). Isotype: grey; CD70: black. (FIG. 2B) Cell Viability. (FIG. 2C) Fold change ΔMFI CD70 and (FIG. 2D) mRNA CD70 expression (AML: n=9-15; healthy: n=3). (FIG. 2E) Representative FACS plot and (FIG. 2F) fold change ΔMFI CD70 on stem/progenitor cells in the peripheral blood of AML patients at diagnosis and after 1 cycle of decitabine or azacitidine treatment (D(5), 20 mg/kg, daily for 5 days; A(7), 75 mg/m^2, daily for 7 days).

AML = conditions: aza alone; cited from earlier work

Compound: Nc1ncn([C@@H]2O[C@H](CO)[C@@H](O)[C@H]2O)c(=O)n1 [azacitidine]
- CD70 expression on LSCs compared to level at diagnosis (LSCs): increase in CD70 expression
- response rate (AML): approximately 25%
